# Laboratory results published in ChEMBL document CHEMBL5725202, “Substituted bicyclic compounds” (2016).
# Molecular target: Sphingosine 1-phosphate receptor 1 (Homo sapiens, UniProt P21453)
# Assay: Binding Assay: Membranes were prepared from CHO cells expressing human S1P1. Cells pellets (1x10^9 cells/pellet) were suspended in buffer containing 20 mM HEPES (4-(2-hydroxyethyl)-1-piperazineethanesulfonic acid), pH 7.5, 50 mM NaCl, 2 mM EDTA (Ethylenediaminetetraacetic acid) and Protease Inhibitor cocktail (Roche), and disrupted on ice using the Polytron homogenizer. The homogenate was centrifuged at 20,000 rpm (48,000 g) and the supernatant was discarded. The membrane pellets were resuspended in buffer containing 50 mM HEPES, pH 7.5, 100 mM NaCl, 1 mM MgCl2, 2 mM EDTA and stored in aliquots at -80° C. after protein concentration determination.Membranes (2 ug/well) and 0.03 nM final concentration of 33P-S1P ligand (1 mCi/ml, Perkin elmer or American Radiolabeled Chemicals) diluted in assay buffer (50 mM HEPES, pH7.4, 5 mM MgCl2, 1 mM CaCl2, 0.5% fatty acid free BSA (bovine serum albumin), 1 mM NaF) were added to the compound plates (384 Falcon v-bottom plate (0.5 ul/well in a 11 point, 3-fold dilution). Binding was performed for 45 minutes at room temperature, terminated by collecting the membranes onto 384-well Millipore FB filter plates, and radioactivity was measured by TOPCOUNT. The competition data of the test compounds over a range of concentrations was plotted as percentage inhibition of radioligand specific binding.
# Chain of Sphingosine 1-phosphate receptor 1 (P21453 whole entry): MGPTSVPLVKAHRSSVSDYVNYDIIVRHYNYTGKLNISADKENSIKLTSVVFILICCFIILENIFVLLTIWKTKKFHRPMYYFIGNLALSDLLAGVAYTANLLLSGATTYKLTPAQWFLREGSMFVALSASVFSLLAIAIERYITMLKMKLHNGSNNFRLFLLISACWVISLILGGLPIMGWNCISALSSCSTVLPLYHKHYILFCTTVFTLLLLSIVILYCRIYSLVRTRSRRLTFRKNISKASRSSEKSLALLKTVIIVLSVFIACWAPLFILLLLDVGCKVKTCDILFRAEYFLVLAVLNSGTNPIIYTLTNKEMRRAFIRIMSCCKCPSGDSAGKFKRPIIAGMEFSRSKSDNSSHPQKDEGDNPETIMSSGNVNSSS
compound,measurement,value
CCCCCC[C@H]1Cc2ccc([C@@H]3CC[C@](N)(COP(=O)(O)O)C3)cc2CO1,IC50,< 10 nM
